In patent publication US8980564B2, “Predictive markers for taxane responsiveness and methods of use thereof” (The Governors of the University of Alberta, priority 2009, dated 2015):

Columns and labels:
breast cancer = experiment: Survival analysis of breast cancer patients after adjuvant docetaxel-based chemotherapy, stratified by Bad staining; assay type: in vivo, human; details: 180 women, multivariate modeling
Description: Tissue micoarrays were made from formalin fixed breast tissues in triplicate 0.6 mm cores using the TMArrayer™. Tissues on slides were deparaffinized in xylene and rehydrated in decreasing concentrations of ethanol to water. Endogenous peroxidase was quenched in 0.3% H2O2 for 10 minutes. For antigen retrieval, slides were placed in boiling citrate buffer pH 6.0 for 10 minutes followed by rinsing in water for 10 minutes. Tissues were incubated with the BAD antibody (Cell Signaling Technology) at a dilution of 1/25 at 4° C. overnight in a humidified container or with Bik antibody (Cell signaling Technology) at a dilution of 1/50 at room temperature in a humidified container. Slides were washed 2 times in PBS for 5 minutes. For the secondary antibody, Anti-Rabbit EnVision+System-HRP (Dako) was incubated on the tissues at room temperature for 30 minutes. Slides were washed 2 times in PBS and then tissues were incubated with DAB (Dako) for 10 minutes. Slides were rinsed in water for 10 minutes followed by a soak in 1% Copper Sulfate for 5 minutes. Haematoxylin was used to counterstain the tissues. […] Staining intensity was scored as 0 (absent), 1 (weak), or 2 (strong). […] Using ROC, an optimized cutpoint of 0.57 was chosen for Bad expression and an optimized cutpoint of 0.1 was chosen for Bik expression, and patients were analyzed based on this cutpoint. […]

Bad:Bcl-XL = experiment: Co-immunoprecipitation of Bad with Bcl-XL; details: 25 nM paclitaxel 48 h or 2.5 uM STS 4 hours
Bad = experiment: Subcellular fractionation, Bad localization by Western blotting; details: MCF-7, MDA-MB-468, SKBR-3; 25 nM paclitaxel 48 h or 2.5 uM STS 4 hours
MCF-7 cell line = experiment: Apoptosis assays (TMRE loss, annexin V) in MCF-7; assay type: cell-based, human; details: 25 nM paclitaxel
Description: (§1) Apoptosis assays were performed as described previously (Czernick et al., 2009). Briefly, breast cancer cell lines were treated with dimethyl sulfoxide (DMSO) vehicle control or 25 nM paclitaxel, which corresponds to a clinically relevant dose (Blagosklonny and Fojo, 1999; Jordan et al., 1996). After treatment, samples were divided and analyzed for apoptosis. Apoptosis was evaluated by fluorescence-activated cell sorting (FACS) analysis using the following apoptotic markers: (i) mitochondrial dysfunction [loss of mitochondrial electrochemical potential and decreases in tetramethyl rhodamine ethyl ester (TMRE)]. Percent specific TMRE loss was determined as (% TMRE negative cells of treated sample−% TMRE negative cells of untreated control sample); (ii) increases in phosphatidylserine externalization (Annexin V). Percent specific annexin V positivity was determined as (% annexin V positive cells of treated sample−% annexin V positive cells of untreated control sample).
Each cell line was treated with 25 nM of paclitaxel, which induces a clinically relevant intracellular accumulation of the drug in tissue culture conditions (Derry et al., 1998; Jordan et al., 1996). After the indicated amount of time, apoptosis was assessed by measuring mitochondrial electrochemical potential loss (TMRE loss) and phosphatidyl serine externalization (annexin V positivity) (FIG. 1A).

Bcl-XL = Bcl-XL protein level in treated cells; assay type: cell-based, human; details: paclitaxel-treated cells
From the text: In fact, mitotic arrest-mediated repression of Bcl-XL contributes to cell death via liberation of Bax (Upreti et al., 2008).

breast cancer cell lines = experiment: Apoptosis assays (TMRE loss, annexin V) in a panel of five breast cancer cell lines; assay type: cell-based, human; details: 25 nM paclitaxel; TMRE loss and annexin V positivity
Description: as §1
To investigate which BH3-only proteins are involved in paclitaxel-induced apoptosis, a panel of five validated breast cancer cell lines acquired from Dr. Gordon Mills (M.D. Anderson Cancer Center, U. of Texas) was analyzed; validated cells were used to avoid any controversy with respect to lineage authenticity (Graham et al., 1986; Osborne et al., 1987). […]

MCF-7 cells = experiment: DNA content analysis by propidium iodide staining (cell cycle); assay type: cell-based, human; details: up to 24 hours in paclitaxel
Description: Samples were fixed at −20° C. in ice-cold 70% ethanol for a minimum of 24 hours. After fixation, the samples were stained with 20 ug/ml propidium iodide, 2 mg/ml RNase, 0.1% Triton X-100 in PBS for 30 minutes at 4° C. Samples were analyzed in the FL-2 channel on the FACScan as previously described, with the exception that doublet discrimination was achieved by gating on the smaller width G2 cells as determined by analysis of pulse width versus pulse area (Goping et al., 2008).
To verify that the increased proportion of cells in G1 was due to delayed G1 exit and not increased G1 entry, G1 entry was inhibited by arresting cells at G2/M with paclitaxel. […] In time course analyses, the progression of cells from G1 through S to G2/M was delayed in Bad-depleted cells relative to control transfected cells. […] Based on these observations, and again while not wishing to be bound by theory, it was concluded that Bad contributes to cell cycle progression by facilitating exit from the G1 phase of the cell cycle and is supported by a similar role of Bad in rat fibroblasts (Chattopadhyay et al., 2001).

Structure (SMILES) | hazard ratio of relapse, low Bad tumour staining intensity (breast cancer; 95% CI 1.05-3.66) | death hazard ratio, low Bad tumour staining intensity (breast cancer; 95% CI 1.05-3.66 as printed) | association of Bad and Bcl-XL (Bad:Bcl-XL) | mitochondrial translocation of Bad (Bad) | cell death based on mitochondrial dysfunction and cellular morphology (MCF-7 cell line; MCF-7) | loss of mitochondrial potential (TMRE loss) (MCF-7 cell line; MCF-7) | phosphatidyl serine externalization (annexin V positivity) (MCF-7 cell line; MCF-7, cells do not express caspase 3) | levels of Bcl-XL protein (Bcl-XL) | relative paclitaxel sensitivities of the breast cancer cell lines, rank order of increasing sensitivity (breast cancer cell lines) | mitotic arrest (G2/M) (MCF-7 cells)
CC(=O)O[C@@]12CO[C@@H]1C[C@H](O)[C@@]1(C)C(=O)[C@H](O)C3=C(C)[C@@H](OC(=O)[C@H](O)[C@@H](NC(=O)OC(C)(C)C)c4ccccc4)C[C@@](O)([C@@H](OC(=O)c4ccccc4)[C@H]21)C3(C)C [docetaxel] | 1.96 | 3.65 |  |  |  |  |  |  |  | 
CN[C@@H]1C[C@H]2O[C@@](C)([C@@H]1OC)n1c3ccccc3c3c4c(c5c6ccccc6n2c5c31)C(=O)NC4 [STS, staurosporine] |  |  | remained as a complex | migrated to mitochondria |  |  |  |  |  | 
CC(=O)O[C@H]1C(=O)[C@@]2(C)[C@H]([C@H](OC(=O)c3ccccc3)[C@]3(O)C[C@H](OC(=O)[C@H](O)[C@@H](NC(=O)c4ccccc4)c4ccccc4)C(C)=C1C3(C)C)[C@]1(OC(C)=O)CO[C@@H]1C[C@@H]2O [paclitaxel] |  |  | decreased association of Bad and Bcl-XL | did not induce mitochondrial translocation of Bad | induced significant death | robust loss of mitochondrial potential | blunted | reduced levels of Bcl-XL protein | MDA-MB-231, T47-D, MDA-MB-468, MCF-7 and SKBR-3 | induced mitotic arrest
